The text below walks through data of US20250092360A1, “METHODS AND COMPOSITIONS FOR GENERATING SOMATOSTATIN+ INTERNEURONS FROM HUMAN FOREBRAIN NEURAL PROGENITOR CELLS” (Trailhead Biosystems Inc., priority 2023, published 2025).

Several values for one entry are separate records, joined by “and”; a condition that tells them apart may be missing. Identical values can stand only once. Entries after “also recorded” stand apart in the source; their conditions may differ.

Assay [1] deals with forebrain-committed neural progenitor cells. Put plainly: HD-DoE stage 5, 8-factor experiment (GDNF, BDNF, NT-3 ...): Somatostatin expression. Format: cell-based, human. Conditions: for impact on expression of Somatostatin: FIG. 24 dynamic profile, in words; for factor contribution, expression of Somatostatin: positive, 8-factor experiment of FIG. 23. Here is the method:
To investigate the effects of other factors on differentiation of forebrain-committed neural progenitor cells to Somatostatin interneuron cells, an additional HD-DoE experiment was performed for 3 days on cells that were treated with stage 1 to stage 4 medium for a total of 12 days prior to the new experiment. This experiment, the results of which are shown in FIG. 23, included eight effectors, GDNF, BDNF, NT-3, ß-NGF, Linoleic acid, 5-Cholesten-3β, LIF and TGF-β3. In this model, we focused on maximum expression of Somatostatin gene expressed in Somatostatin (+) interneurons (Urban-Ciecko and Barth (2016) Nature Reviews Neurosci. 17:401-409). When the model was optimized for maximum expression of Somatostatin, BDNF, NT-3, beta-NGF and Linoleic acid had the highest factor contributions, 25.7, 2, 19.9, 23.5, respectively.
Therefore, the latter were excluded in the recipe.

In assay [2] the test system is stage 2 neural stem cells. Put plainly: HD-DoE stage 3 experiment: ASCL1, LHX6, DLX1 expression. Format: cell-based, human. Conditions: for factor contribution, expression of ASCL1: positive, model optimized for maximum ASCL1 at 1700. Here is the method: To further guide the cells to medial ganglionic eminence progenitor fate, an additional HD-DoE experiment was performed for 3 days on cells that were treated with stage 1 and stage 2 media for total of 6 days prior to start of the experiment. This experiment included 13 effectors, LDN193189, A8301, GNF5837, AZD3147, GSI-XX, Takinib, PD0325901, PD173074, BLU9931, IGF-1, MHY1485, Purmorphamine and Prostratin. In this model, we focused on maximum expression of genes expressed in neuronal progenitor cells in medial ganglionic eminence (MGE) region including ASCL1, LHX6 and DLX1 (Silberberg et al. (2016) Neuron 92:59-74). When the model was optimized for maximum expression of ASCL1 at 1700, A8301, GSI-XX, Purmorphamine and Takinib, which is an inhibitor of TAK1 pathway, had the highest factor contributions, 18.1, 14.1, 12.7 and 10.1 respectively. […] MHY 1485 also had positive contribution however the factor was below 2 (FIG. 9).
Therefore, six effectors including A8301, GSI-XX, Takinib, GNF5837, IGF-1 and Purmorphamine were finalized as ingredients of stage 3 differentiation media. A representative recipe for Stage 3 differentiation is summarized below in Table 3.

Assay [3] relates to stage 2 neural stem cells. As to the kind of experiment: Factor criticality analysis, stage 3 recipe. Format: cell-based, human. Conditions: other five stage 3 factors present; for expression level of DLX1 when the factor is removed: 220 with all six factors; for expression level of LHX6 when the factor is removed: 240 with all six factors; for expression level of ASCL1 when the factor is removed: 1650 with all six factors. Here is the method: To assess the impact of the elimination of each validated factor, dynamic profile analysis was used and compared the expression level of genes of interest in absence of each finalized factor while others are present.
In the stage 3 recipe, each of the six finalized factors were removed while the other five factors remained present and the expression levels of ASCL1, DLX1 and LHX6 were assessed compared to the presence of all six factors. […] As expected, in the absence of IGF-1, the value of DLX1 increases to 410, however, ASCL1 and LHX6 decreased to 1390 and 220, respectively.

For assay [4], the system named is human pluripotent stem cells. As to the kind of experiment: HD-DoE stage 1, additional experiment: FEZF2 expression. The following applies: dynamic profile, in words. Format: cell-based. Here is the method:
To identify the recipe for stage 1 of differentiation, 96 different combinations of effectors generated using Design-of-Experiments compression through D-optimality were robotically prepared. The effector combinations were prepared in a basal media and were subsequently added to the cells, which were then allowed to differentiate. Three days later RNA extraction was performed, and gene expression was obtained using quantitative PCR analysis. The data were normalized and modeled using partial least squares regression analysis to the effector design, resulting in the generation of gene-specific models, which after model tuning for maximal Q2 predictive power, provided explanation of the effectors ability to control the expression of individual genes, combinatorically, and individually. Solutions within the tested space could then be explored to address desirability. To further enhance the conditions for forebrain differentiation from pluripotency, an additional HD-DoE experiment was performed. Additional gene regulatory models were obtained that were used for preparation of the differentiation protocol. The factors in this experiment included LDN193189, PD173074, BLU9931, Purmorphamine, SC79, MK2206, ZM336372, PD0325901, CHIR99021, XAV939, UCLA-GP130, Tofacitinib and GO6983. […] Dynamic profile analysis was also used to assess the interaction between the effectors.

Assay [5] deals with human pluripotent stem cells. As to the kind of experiment: Factor criticality analysis, stage 1 recipe (dynamic profile analysis). Format: cell-based. Conditions: 3500 with all factors; FIG. 12. From the text:
To assess the impact of the elimination of each validated factor, dynamic profile analysis was used and compared the expression level of genes of interest in absence of each finalized factor while others are present. […] When Purmorphamine was removed, levels of FEZF2 and SIX3 were decreased to 1000 and below 3000, while levels of OTX2 increased to 6500.

The subject of assay [6] is medial ganglionic eminence (MGE)-derived neural progenitors. As to the kind of experiment: HD-DoE stage 4, 12-factor experiment: SOX6 expression. Format: cell-based, human. The following applies: for impact on expression of SOX6: dynamic profile, in words; for factor contribution, expression of SOX6: significant negative effect, model optimized for maximal SOX6. From the text: These effectors are small chemical compounds or proteins. They are commonly used during the differentiation of stem cells to specific cell linage. The choice of the effectors was based on the current literature on forebrain neural induction and differentiation of neural progenitor cells to mature neurons.
To evaluate the effectors on SST differentiation, experiments with 8 or 12 factors were designed to assess the responses of cells to 48 or more combinations of effectors in a range of concentrations. To analyze the models, we focused on expression of genes involved in development and patterning of the forebrain interneurons maturation including LHX6 (Liodis et al. (2007) J. Neurosci. 27:3078-3089; Yuan et al. (2018) Elife 7: e37382), SOX6 (Azim et al. (2009) Nature Neurosci. 12:1238-1247; Batista-Brito et al. (2009) Neuron 63:466-481), DLX5 (de Lombares et al. (2019) Aging (Albany NY) 11:6638; Wang et al. (2010) J. Neurosci. 30:5334-5345) and ASCL1 (Barretto et al. (2020) J. Neurosci. Meth. 334:108548; Shi et al. (2016) J. Biol. Chem. 291:13560-13570). At later stages we focused on interneuron maturation genes including somatostatin and absence of Parvalbumin (Horn and Nicoll (2018) Proc. Natl. Acad. Sci. 115:589-594). The impacts of each effector on gene expression level are defined by a parameter called factor contribution that is calculated for each effector during the modeling.
To identify the recipe for differentiation at stage 4, at least 48 different combinations of effectors were robotically prepared by the Design-of-Experiments compression through D-optimality. The effector combinations were prepared in a basal media and were subsequently added to the cells, which were then allowed to differentiate. Three days later, RNA extraction was performed, and gene expression levels were examined using quantitative PCR analysis. The data was normalized and modeled using partial least squares regression analysis to the effector design, resulting in the generation of gene-specific models, which after model tuning for maximal predictive power, provided explanation of the effectors ability to control the expression of individual genes, combinatorically, and individually. Solutions within the tested space could then be explored to address desirability.
IGF-1 activates the IGF-1 pathway, promotes neuron axonal growth, and establishes the synapse of interneurons. GDNF is the […] and can activate the GDNF pathway. MK2206 is an AKT inhibitor and can inhibit cell proliferation and promote neuronal maturation. PD173074 and BLU-554 are FGFR inhibitors. The FGF pathway is required for the maintenance of neural progenitor cells. Inhibition of the FGFR pathway promotes neural maturation. GSI-XX is a notch pathway inhibitor. Notch pathway inhibits neural progenitor cell differentiation. Inhibition of the Notch pathway promotes neural differentiation.
To find the set of factors that have the potential to optimize SOX6 in this experiment, a new assessment was done through dynamic profile analysis with focus on maximal expression of SOX6.

As for 5-Cholesten-3β, in assay [1], the “impact on expression of Somatostatin” value is on record as “negative impact”.

Turning to `Cc1cccc(-c2nn(C(=S)Nc3ccccc3)cc2-c2ccnc3ccccc23)n1` [A8301], in assay [2] (dynamic profile, in words), the “impact on expression of ASCL1” value is listed as “positive trends; also recorded: Positive impact”, the “impact on expression of DLX1” value is listed as “did not have a significant negative impact” and the “impact on expression of LHX6” value is listed as “positive trends; also recorded: Positive impact”. The “factor contribution, expression of ASCL1” value in assay [2] was 18.1 and 18. Further, in assay [3], the “expression level of DLX1 when the factor is removed” value (“expression level of DLX1” for short) is recorded as “did not change significantly”, the “expression level of LHX6 when the factor is removed” value (shortened to “expression level of LHX6”) is recorded as “did not change significantly” and the “expression level of ASCL1 when the factor is removed” value turned out to be 1000.

Regarding `Cc1ccc(NC(=O)Nc2cc(C(F)(F)F)ccc2F)cc1Nc1ccc2c(c1)NC(=O)/C2=C\c1ccc[nH]1` [GNF5837], the “factor contribution, expression of ASCL1” value in assay [2] turned out to be 9.4. Moreover, in assay [3], the “expression level of DLX1” value is “did not have a significant impact”, the “expression level of LHX6” value was 160 and the “expression level of ASCL1 when the factor is removed” value was found to be 1300.

As for `COc1ccc2c(c1)c(C1=C(c3c[nH]c4ccccc34)C(=O)NC1=O)cn2CCCN(C)C` [GO6983], the “impact on expression of FEZF2” value in assay [4] is recorded as “positive impact”. Further, the “expression level of FEZF2 when the factor is removed” value in assay [5] is on record as 3200.

`CCCCC/C=C\C/C=C\CCCCCCCC(=O)O` [Linoleic acid]: in assay [1], the “impact on expression of Somatostatin” value is reported as “positive effect; also recorded: positive impact” and the “factor contribution, expression of Somatostatin” value came to 23.5.

With `O=[N+]([O-])c1ccc(Nc2nc(N3CCOCC3)nc(N3CCOCC3)n2)cc1` [MHY 1485], the “factor contribution, expression of ASCL1” value in assay [2] is “below 2”. For the same molecule, in assay [6], the “impact on expression of SOX6” value is listed as “negative effect” and the “factor contribution, expression of SOX6” value is 9.5.

Turning to `NC(=O)c1ccc(-c2nc(-c3ccc4c(c3)OCO4)c(-c3ccccn3)[nH]2)cc1` [SB431542], in assay [6], the “impact on expression of SOX6” value is on record as “negative effect” and the “factor contribution, expression of SOX6” value was determined as 6.2.

As to `CCCn1/c(=N/C(=O)c2cccc(C(N)=O)c2)[nH]c2ccccc21` [Takinib], the “factor contribution, expression of ASCL1” value in assay [2] amounted to 10.1. Also, in assay [3], the “expression level of DLX1” value is recorded as 180 and the “expression level of LHX6” value was 170.

As for `CCCC(CCC)C(=O)O` [Valproic acid], in assay [6], the “impact on expression of SOX6” value is reported as “negative effect” and the “factor contribution, expression of SOX6” value amounted to 4.7.

Take “LIF: effector tested in the stage 5 HD-DoE experiment”: in assay [1], the “impact on expression of Somatostatin” value is on record as “negative impact”.

Consider “Substance P: member of the tachykinin neuropeptide family”, for which, in assay [6], the “impact on expression of SOX6” value is on record as “negative effect” and the “factor contribution, expression of SOX6” value turned out to be 5.1.

Regarding “beta-NGF: effector tested in the stage 5 HD-DoE experiment”, in assay [1], the “impact on expression of Somatostatin” value is “positive impact” and the “factor contribution, expression of Somatostatin” value is recorded as 19.9. The “impact on expression of Somatostatin” value in assay [1] (listed as β-NGF) is given as “positive effect”.

B1: NT-3: effector tested in the stage 5 HD-DoE experiment (protein, UniProt P20783 139-257, looked up)
Neurotrophin-3: YAEHKSHRGEYSVCDSESLWVTDKSSAIDIRGHQVTVLGEIKTGNSPVKQYFYETRCKEARPVKNGCRGIDDKHWNSQCKTSQTYVRALTSENNKLVGWRWIRIDTSCVCALSRKIGRT
For B1, in assay [1], the “impact on expression of Somatostatin” value is recorded as “positive effect; also recorded: positive impact” and the “factor contribution, expression of Somatostatin” value is on record as 2.

B2: TGF-β3: effector tested in the stage 5 HD-DoE experiment (protein, UniProt P10600 301-412, looked up)
Transforming growth factor …: ALDTNYCFRNLEENCCVRPLYIDFRQDLGWKWVHEPKGYYANFCSGPCPYLRSADTTHSTVLGLYNTLNPEASASPCCVPQDLEPLTILYYVGRTPKVEQLSNMVVKSCKCS
modifications: Transforming growth factor beta-3
Consider B2, for which the “impact on expression of Somatostatin” value in assay [1] is on record as “negative impact”.
